{
  "source": "patent US20080206149A1",
  "about": "“METHOD, DYE AND MEDICAMENT FOR STAINING THE INTERNAL LIMITING MEMBRANE, EPIRETINAL MEMBRANE, THE VITREOUS AND/OR THE CAPSULE OF AN EYE” (LUDWIG-MAXIMILIANS-UNIVERSITAT MUNCHEN, priority 2005, published 2008)",
  "key": {"lens capsule [1]": {"system": "lens capsule", "test": "Staining of the lens capsule in enucleated porcine eyes", "details": "injected into air-filled anterior chamber, removed after one minute; clear porcine lens as background", "experimental": "Additionally, the staining characteristics of the lens capsule in enucleated porcine eyes with a postmortem time of nine hours were evaluated. The dyes were injected into the air-filled anterior chamber and removed by irrigation after one minute. Then, the cornea was removed and a capsulorhexis was performed with a bent needle. All procedures were taped on video."}, "[2]": {"test": "Light absorbing properties (UV/VIS/NIR spectrometer)", "type": "physicochemical", "details": "measured up to a content of 0.05% dye", "experimental": "Light absorption was measured in 0.05% solutions, with BSS plus as a solvent medium. Light absorption was measured instantly after preparation of a stock solution of the dye using a UV/VIS/NIR Spectrometer (Lambda 900, Perkin Elmer) between 200 and 1000 nm."}, "ARPE-19 cells [3]": {"system": "ARPE-19 cells", "test": "Life-dead assay (propidium iodide / Hoechst 33342), ARPE-19 cells", "type": "cell-based", "experimental": "(§1) Confluent RPE and ARPE-19 cells were prepared and treated as described above. Cell viability was quantified based on a two-color fluorescence assay in which the nuclei of nonviable cells appear red because of staining by the membrane-impermeable dye propidium iodide (Sigma), whereas the nuclei of all cells were stained with the membrane-permeable dye Hoechst 33342 (Intergen, Purchase, N.Y.). […] For evaluation of cell viability, cells were washed in PBS and incubated with 2.0 μg/mL propidium iodide and 1.0 μg/mL Hoechst 33342 for 20 minutes at 37° C. Subsequently, cells were analyzed with an epifluorescence microscope (Axioskop; Zeiss, Göttingen, Germany). The labeled nuclei were then counted in fluorescence photomicrographs, and dead cells were expressed as a percentage of total nuclei in the field. The data are based on counts from three experiments performed in duplicate wells, with three to five documented representative fields per well."}, "primary RPE cells [4]": {"system": "primary RPE cells", "test": "Life-dead assay (propidium iodide / Hoechst 33342), primary RPE cells", "type": "cell-based", "experimental": "Invest Ophthalmol Vis Sci 2002; 43: 3575-82.\nas §1"}, "vitreous": {"system": "vitreous", "test": "Staining of the vitreous during pars plana vitrectomy in porcine eyes", "type": "in vivo", "details": "graded by two examiners", "experimental": "All dyes were dissolved and diluted using balanced salt solution (BSS plus; Alcon Laboratories Inc., Fort Worth, Tex).\nExperiments were performed in animals (porcine eyes) and humans after approval of the local ethics committee had been obtained. All experiments were performed in compliance with the Declaration of Helsinki.\nOphthalmic surgery consisted of a standard pars plana vitrectomy. First, the transparent vitreous was removed as completely as possible. Then fluid air exchange was performed in order to avoid an uncontrolled distribution of the dye in the vitreous cavity. The dye was then injected into the air filled globe. After a period of one minute, the dye was washed out by irrigation with BSS. This was followed by an injection of the dye in concentrations from 0.2% to 2%. The staining of the vitreous was graded by two examiners who also performed the surgical procedures."}, "ARPE-19 cells [5]": {"system": "ARPE-19 cells", "test": "MTT assay, ARPE-19 cells", "details": "0.2% and 0.02% dye, 10 minutes exposure, compared to BSS plus control", "procedure": "ARPE-19 cells, a human retinal pigment epithelial cell line (42), were purchased from ATCC (Manassas, Va., USA) and grown in a 1:1 mixture of Dulbecco's modified Eagles medium and Ham's F12 medium (DMEM/Ham's F12, Biochrom), supplemented with 10% FCS (Biochrom).\nFor exposure of dyes RPE and ARPE-19 cells were kept for 24 hours under serum free conditions. After washing cells three times with PBS, cells were incubated for 10 minutes with 300 μl of BSS plus containing 0.2% or 0.02% of dye, respectively. […] The dye was then removed by carefully rinsing cells with BSS plus three times. After 24 hours incubation with serum containing media the cell proliferation assay was performed. RPE cells (p3-6) were seeded in 24-well plates and exposed to two concentrations (0.2 and 0.02%) of dyes. BSS plus alone and H2O2, (200 μL/mL) served as controls.\nThe tetrazolium dye-reduction assay (MTT; 3-[4,5-dimethylthiazol-2-yl]-2,5-diphenyl tetrazolium bromide;) was used to determine cell survival rate. […] The medium was removed, cells were washed with PBS, and 1000 μL/well MTT solution (1.5 mL MTT stock, 2 mg/mL in PBS, plus 28.5 mL DMEM) was added. RPE cells were incubated at 37° C. for 1 hour. The formazan crystals that formed were dissolved by the addition of dimethyl sulfoxide (DMSO; 1000 μL/well). Absorption was measured by a scanning multiwell spectrophotometer at 550 nm (Molecular Probes, Garching, Germany). […] Experiments were performed in triplicate and repeated three times. RPE and ARPE-19 cells of the same passage incubated with BSS without addition of dyes served as control. Statistical comparison between dye concentrations was performed with SPSS (Mann-Whitney-U-Test).\nThe MTT test as performed in this study is a well established test for the assessment of cell viability, but relies on calorimetric measurement of a blue (550 nm) formazan reaction product. This color overlaps with the absorption spectra of some of the dyes tested. […] Cell monolayers were treated with dyes as per the experiments described above but absorbance readings were performed without prior application of MTT. […]"}, "primary RPE cells [6]": {"system": "primary RPE cells", "test": "MTT assay, primary RPE cells", "details": "0.2% and 0.02% dye, 10 minutes exposure, compared to BSS plus control", "source_text": "In brief, whole eyes were thoroughly cleansed in 0.9% NaCl solution, immersed in 5% polyvinyl pyrrolidone iodine, and rinsed again in the sodiumchloride solution. The anterior segment from each donor eye was removed and the posterior poles were examined with the aid of a binocular stereomicroscope to confirm the absence of gross retinal disease. Next, the neural retinas were carefully peeled away from the RPE-choroid-sclera using fine forceps. The eye cup was rinsed with Ca^2+ and Mg^2+-free Hank's balanced salt solution, and filled with 0.25% trypsin (GIBCO, Karlsruhe, Germany) for 30 min at 37° C. The trypsin was carefully aspirated and replaced with Dulbecco's modified eagles medium (DMEM, Biochrom, Berlin, Germany) supplemented with 20% fetal calf serum (FCS, Biochrom). Using a pipette, the media was gently agitated, releasing the RPE into the media by avoiding damage to Bruch's membrane. The RPE cell solution was transferred to a 50 ml flask (Falcon, Wiesbaden, Germany) containing 20 ml of DMEM (Biochrom) supplemented with 20% FCS (Biochrom) and maintained at 37° C. and 5% carbon dioxide. […] After having grown to confluency (100%), primary RPE cells were subcultured and maintained in DMEM (Biochrom) supplemented with 10% FCS (Biochrom) at 37° C. and 5% carbon dioxide. Primary RPE of passage 3-6 and ARPE-19 cells were used for experiments.\nFor exposure of dyes RPE and ARPE-19 cells were kept for 24 hours under serum free conditions. After washing cells three times with PBS, cells were incubated for 10 minutes with 300 μl of BSS plus containing 0.2% or 0.02% of dye, respectively. […] The dye was then removed by carefully rinsing cells with BSS plus three times. After 24 hours incubation with serum containing media the cell proliferation assay was performed. […]\nThe tetrazolium dye-reduction assay (MTT; 3-[4,5-dimethylthiazol-2-yl]-2,5-diphenyl tetrazolium bromide;) was used to determine cell survival rate. […] Absorption was measured by a scanning multiwell spectrophotometer at 550 nm (Molecular Probes, Garching, Germany). […]"}, "lens capsule [7]": {"system": "lens capsule", "test": "Staining of lens capsule removed during intraocular surgery", "details": "concentrations of 0.5% or less; dye removed after one minute", "experimental": "(§2) The following four dyes were examined as examples for the inventive dyes in the present study: Light green yellowish SF (LG SF), E68, Bromophenol blue (BPB) and Chicago blue (CB). ICG (Pulsion, Munich, Germany) was used as a reference. All dyes were dissolved and diluted with balanced salt solution (BSS plus; Alcon Laboratories Inc., Fort Worth, Tex.) and concentrations of 1.0, 0.5, 0.2 and 0.05% were obtained. Dry ICG powder was first dissolved with sterile water provided by the manufacturer resulting in a 0.5% solution and then further diluted using BSS plus to a concentration of 0.05%. The dyes were then used to stain lens capsule and epiretinal membranes removed during intraocular surgery. Immediately after removal, the material was placed on a glass slide and covered with a few drops of the dye. After one minute, the dye was carefully removed by irrigation using BSS plus. Lens capsule and epiretinal tissue was then evaluated macroscopically and using light microscopy. The staining effect was subjectively graded as “excellent, good, fair or absent” by one unmasked person and photographs were taken."}, "[8]": {"system": "epiretinal membranes (ERM)", "test": "Staining of epiretinal membranes removed during intraocular surgery", "details": "concentration of 1%; dye removed after one minute", "experimental": "as §2"}},
  "data": [
    {"molecule": "Chicago blue", "values": [
      {"measurement": "staining of the lens capsule in porcine eyes", "setting": "lens capsule [1]", "value": "stained well"},
      {"measurement": "position of the long wavelength maximum, influence of dye concentration", "setting": "[2]", "value": "not influenced by the dye concentration"},
      {"measurement": "cell viability, nuclei of nonviable cells labeled with propidium iodide", "setting": "ARPE-19 cells [3]", "value": "significantly affect cell viability"},
      {"measurement": "cell viability, nuclei of nonviable cells labeled with propidium iodide", "setting": "primary RPE cells [4]", "value": "significantly affect cell viability"},
      {"measurement": "staining effect of the vitreous", "setting": "vitreous; dye concentration 0.2%", "value": "weak"},
      {"measurement": "staining effect of the vitreous", "setting": "vitreous; dye concentration 2.0%", "value": "strong"},
      {"measurement": "cell survival of ARPE-19 cells (MTT)", "setting": "ARPE-19 cells [5]", "value": "no significant impact on cell survival"},
      {"measurement": "cell survival of primary RPE cells (MTT)", "setting": "primary RPE cells [6]", "value": "no influence on cell survival"}
    ]},
    {"molecule": "Copperphtalocyanine-3,4′,4″,4′″-tetrasulphonic acid tetrasodium salt [E68]", "values": [
      {"measurement": "staining of the lens capsule in porcine eyes", "setting": "lens capsule [1]", "value": "stained well"},
      {"measurement": "cell viability, nuclei of nonviable cells labeled with propidium iodide", "setting": "ARPE-19 cells [3]", "value": "did not affect cell survival"},
      {"measurement": "cell viability, nuclei of nonviable cells labeled with propidium iodide", "setting": "primary RPE cells [4]", "value": "did not affect cell survival"},
      {"measurement": "staining effect of the vitreous", "setting": "vitreous; dye concentration 0.2%", "value": "weak"},
      {"measurement": "staining effect of the vitreous", "setting": "vitreous; dye concentration 2.0%", "value": "strong"}
    ]},
    {"molecule": "CCN(Cc1cccc(S(=O)(=O)O)c1)c1ccc(C(=C2C=CC(=[N+](CC)Cc3cccc(S(=O)(=O)O)c3)C=C2)c2ccc(S(=O)(=O)O)cc2)cc1.[Na+].[Na+]", "note": "[Light green SF]", "values": [
      {"measurement": "staining effect in removed lens capsule material", "setting": "lens capsule [7]", "value": "did not stain lens capsule sufficiently"},
      {"measurement": "staining of ERM", "setting": "[8]", "value": "weak staining"},
      {"measurement": "staining of the lens capsule in porcine eyes", "setting": "lens capsule [1]", "value": "weak staining effects"},
      {"measurement": "position of the long wavelength maximum, influence of dye concentration", "setting": "[2]", "value": "not influenced by the dye concentration"},
      {"measurement": "cell viability, nuclei of nonviable cells labeled with propidium iodide", "setting": "ARPE-19 cells [3]", "value": "significantly affect cell viability"},
      {"measurement": "toxicity of 0.02% in comparison to the 0.2% dye solution", "setting": "ARPE-19 cells [3]", "value": "far less toxic"},
      {"measurement": "cell viability, nuclei of nonviable cells labeled with propidium iodide", "setting": "primary RPE cells [4]", "value": "significantly affect cell viability"},
      {"measurement": "toxicity of 0.02% in comparison to the 0.2% dye solution", "setting": "primary RPE cells [4]", "value": "far less toxic"},
      {"measurement": "staining effect of the vitreous", "setting": "vitreous; dye concentration 0.2%", "value": "strong"},
      {"measurement": "staining effect of the vitreous", "setting": "vitreous; dye concentration 2.0%", "value": "strong"},
      {"measurement": "cell survival of ARPE-19 cells (MTT)", "setting": "ARPE-19 cells [5]", "value": "no significant impact on cell survival"},
      {"measurement": "cell survival of primary RPE cells (MTT)", "setting": "primary RPE cells [6]", "value": "no influence on cell survival"}
    ]}
  ]
}
